How the values were obtained:
Assay in all cases: human cancer cell growth inhibition, sulforhodamine B assay
Assay type in all cases: cell-based
CNS SF268 = conditions: 48 hours; for human cancer cell line growth inhibition (GI50) CNS SF268: Table Ia; for Human cancer cell line inhibition (GI50) CNS SF268: Table I
Protocol: (§1) Inhibition of human cancer cell growth was assessed using the National Cancer Institute's standard sulforhodamine B assay. After 48 hours, the plates were fixed with trichloracetic acid, stained with sulforhodamine B and read with an automated microplate reader. […] Inhibition of the mouse leukemia P388 cells was assessed in a 10% horse serum/Fisher medium soution for 24 hours, followed by a 48 hour incubation with serial dilutions of the compounds. Cell growth inhibition (ED50) was then calculated using a Z1 Becleman/Coulter particle counter.

Pancreas BXPC-3 = conditions: 48 hours; for human cancer cell line growth inhibition (GI50) Pancreas BXPC-3: Table Ia; for Human cancer cell line inhibition (GI50) Pancreas-a BXPC-3: Table I
Protocol: as §1

Colon KM20L2 = conditions: 48 hours; for human cancer cell line growth inhibition (GI50) Colon KM20L2: Table Ia; for Human cancer cell line inhibition (GI50) Colon KM20L2: Table I
Protocol: as §1

Lung-NSC NCI-H460 = conditions: 48 hours; for human cancer cell line growth inhibition (GI50) Lung-NSC NCI-H460: Table Ia; for Human cancer cell line inhibition (GI50) Lung-NSC NCI-H460: Table I
Protocol: as §1

Prostate DU-145 = conditions: 48 hours; for human cancer cell line growth inhibition (GI50) Prostate DU-145: Table Ia; for Human cancer cell line inhibition (GI50) Prostate DU-145: Table I
Protocol: as §1

Breast MCF-7 = conditions: 48 hours; for human cancer cell line growth inhibition (GI50) Breast MCF-7: Table Ia; for Human cancer cell line inhibition (GI50) Breast adn MCF-7: Table I
Protocol: as §1

Compound: COC(=O)C(N)Cc1c[nH]c2ccccc12.COC(=O)C(N)Cc1c[nH]c2ccccc12.COc1ccc(C=Cc2cc(I)c(OC)c(I)c2)cc1OP(=O)(O)O [Y]
- human cancer cell line growth inhibition (GI50) CNS SF268 (CNS SF268): 0.086 µg/mL
- human cancer cell line growth inhibition (GI50) Pancreas BXPC-3 (Pancreas BXPC-3): 0.37 µg/mL
- human cancer cell line growth inhibition (GI50) Colon KM20L2 (Colon KM20L2): >1 µg/mL
- human cancer cell line growth inhibition (GI50) Lung-NSC NCI-H460 (Lung-NSC NCI-H460): 0.033 µg/mL
- human cancer cell line growth inhibition (GI50) Prostate DU-145 (Prostate DU-145): 0.026 µg/mL
- human cancer cell line growth inhibition (GI50) Breast MCF-7 (Breast MCF-7): 0.22 µg/mL

Compound: Sodium 3-bromo-4,4′,-5-trimethoxy-Z-stilbene 3′-O-phosphate [Compound 19a]
- Human cancer cell line inhibition (GI50) CNS SF268 (CNS SF268): 0.0034 µg/mL
- Human cancer cell line inhibition (GI50) Pancreas-a BXPC-3 (Pancreas BXPC-3): 0.093 µg/mL
- Human cancer cell line inhibition (GI50) Colon KM20L2 (Colon KM20L2): 0.23 µg/mL
- Human cancer cell line inhibition (GI50) Lung-NSC NCI-H460 (Lung-NSC NCI-H460): 0.0028 µg/mL
- Human cancer cell line inhibition (GI50) Prostate DU-145 (Prostate DU-145): 0.0046 µg/mL
- Human cancer cell line inhibition (GI50) Breast adn MCF-7 (Breast MCF-7): 0.0041 µg/mL

Compound: Potassium 3-bromo-4,4′,5-trimethoxy-Z-stilbene 3′-O-phosphate [Compound 19c]
- Human cancer cell line inhibition (GI50) CNS SF268 (CNS SF268): 0.0032 µg/mL
- Human cancer cell line inhibition (GI50) Pancreas-a BXPC-3 (Pancreas BXPC-3): 0.20 µg/mL
- Human cancer cell line inhibition (GI50) Colon KM20L2 (Colon KM20L2): 0.24 µg/mL
- Human cancer cell line inhibition (GI50) Lung-NSC NCI-H460 (Lung-NSC NCI-H460): 0.0029 µg/mL
- Human cancer cell line inhibition (GI50) Prostate DU-145 (Prostate DU-145): 0.0028 µg/mL
- Human cancer cell line inhibition (GI50) Breast adn MCF-7 (Breast MCF-7): 0.0035 µg/mL

Compound: C1CCNCC1.C1CCNCC1.COc1ccc(/C=C\c2cc(I)c(OC)c(I)c2)cc1OP(=O)(O)O [W]
- human cancer cell line growth inhibition (GI50) CNS SF268 (CNS SF268): 0.041 µg/mL
- human cancer cell line growth inhibition (GI50) Pancreas BXPC-3 (Pancreas BXPC-3): 0.33 µg/mL
- human cancer cell line growth inhibition (GI50) Colon KM20L2 (Colon KM20L2): >1 µg/mL
- human cancer cell line growth inhibition (GI50) Lung-NSC NCI-H460 (Lung-NSC NCI-H460): 0.025 µg/mL
- human cancer cell line growth inhibition (GI50) Prostate DU-145 (Prostate DU-145): 0.025 µg/mL
- human cancer cell line growth inhibition (GI50) Breast MCF-7 (Breast MCF-7): 0.070 µg/mL

Compound: Magnesium 3-bromg-4,4′,5-trimethoxy-Z-stilbene 3′-O-phosphate [Compound 19g]
- Human cancer cell line inhibition (GI50) CNS SF268 (CNS SF268): 0.0053 µg/mL
- Human cancer cell line inhibition (GI50) Pancreas-a BXPC-3 (Pancreas BXPC-3): 0.074 µg/mL
- Human cancer cell line inhibition (GI50) Colon KM20L2 (Colon KM20L2): 0.27 µg/mL
- Human cancer cell line inhibition (GI50) Lung-NSC NCI-H460 (Lung-NSC NCI-H460): 0.0039 µg/mL
- Human cancer cell line inhibition (GI50) Prostate DU-145 (Prostate DU-145): 0.0045 µg/mL
- Human cancer cell line inhibition (GI50) Breast adn MCF-7 (Breast MCF-7): 0.0045 µg/mL

Compound: Lithium 3-bromo-4,4′,5-trbnethoxy-Z-stilbene 3′-O-phosphate [Compound 19b]
- Human cancer cell line inhibition (GI50) CNS SF268 (CNS SF268): 0.0030 µg/mL
- Human cancer cell line inhibition (GI50) Pancreas-a BXPC-3 (Pancreas BXPC-3): 0.13 µg/mL
- Human cancer cell line inhibition (GI50) Colon KM20L2 (Colon KM20L2): 0.11 µg/mL
- Human cancer cell line inhibition (GI50) Lung-NSC NCI-H460 (Lung-NSC NCI-H460): 0.0026 µg/mL
- Human cancer cell line inhibition (GI50) Prostate DU-145 (Prostate DU-145): 0.0066 µg/mL
- Human cancer cell line inhibition (GI50) Breast adn MCF-7 (Breast MCF-7): 0.0039 µg/mL

Compound: COC(=O)CN.COC(=O)CN.COc1ccc(/C=C\c2cc(I)c(OC)c(I)c2)cc1OP(=O)(O)O [X]
- human cancer cell line growth inhibition (GI50) CNS SF268 (CNS SF268): 0.054 µg/mL
- human cancer cell line growth inhibition (GI50) Pancreas BXPC-3 (Pancreas BXPC-3): 0.36 µg/mL
- human cancer cell line growth inhibition (GI50) Colon KM20L2 (Colon KM20L2): >1 µg/mL
- human cancer cell line growth inhibition (GI50) Lung-NSC NCI-H460 (Lung-NSC NCI-H460): 0.030 µg/mL
- human cancer cell line growth inhibition (GI50) Prostate DU-145 (Prostate DU-145): 0.023 µg/mL
- human cancer cell line growth inhibition (GI50) Breast MCF-7 (Breast MCF-7): 0.10 µg/mL

Compound: Rubidium 3-bromo-4,4′,5-trimetboxy-Z-stilbene 3′-O-phosphate [Compound 19e]
- Human cancer cell line inhibition (GI50) CNS SF268 (CNS SF268): 0.023 µg/mL
- Human cancer cell line inhibition (GI50) Pancreas-a BXPC-3 (Pancreas BXPC-3): 0.56 µg/mL
- Human cancer cell line inhibition (GI50) Colon KM20L2 (Colon KM20L2): 2.6 µg/mL
- Human cancer cell line inhibition (GI50) Lung-NSC NCI-H460 (Lung-NSC NCI-H460): 0.041 µg/mL
- Human cancer cell line inhibition (GI50) Prostate DU-145 (Prostate DU-145): 0.042 µg/mL
- Human cancer cell line inhibition (GI50) Breast adn MCF-7 (Breast MCF-7): 0.043 µg/mL

Compound: Cesium 3-bromo-4,4′,5-trimethoiy-phenyl-Z-stilbene 3′-O-phosphate [Compound 19d]
- Human cancer cell line inhibition (GI50) CNS SF268 (CNS SF268): 0.0064 µg/mL
- Human cancer cell line inhibition (GI50) Pancreas-a BXPC-3 (Pancreas BXPC-3): 0.15 µg/mL
- Human cancer cell line inhibition (GI50) Colon KM20L2 (Colon KM20L2): 0.48 µg/mL
- Human cancer cell line inhibition (GI50) Lung-NSC NCI-H460 (Lung-NSC NCI-H460): 0.0066 µg/mL
- Human cancer cell line inhibition (GI50) Prostate DU-145 (Prostate DU-145): 0.0079 µg/mL
- Human cancer cell line inhibition (GI50) Breast adn MCF-7 (Breast MCF-7): 0.0044 µg/mL

Compound: sodium combretastatin A-4 phosphate [Compound 1b, reference compound]
- Human cancer cell line inhibition (GI50) CNS SF268 (CNS SF268): 0.036 µg/mL
- Human cancer cell line inhibition (GI50) Colon KM20L2 (Colon KM20L2): 0.034 µg/mL
- Human cancer cell line inhibition (GI50) Lung-NSC NCI-H460 (Lung-NSC NCI-H460): 0.029 µg/mL

Compound: C1COCCN1.C1COCCN1.COc1ccc(/C=C\c2cc(I)c(OC)c(I)c2)cc1OP(=O)(O)O [V]
- human cancer cell line growth inhibition (GI50) CNS SF268 (CNS SF268): 0.054 µg/mL
- human cancer cell line growth inhibition (GI50) Pancreas BXPC-3 (Pancreas BXPC-3): 0.35 µg/mL
- human cancer cell line growth inhibition (GI50) Colon KM20L2 (Colon KM20L2): >1 µg/mL
- human cancer cell line growth inhibition (GI50) Lung-NSC NCI-H460 (Lung-NSC NCI-H460): 0.033 µg/mL
- human cancer cell line growth inhibition (GI50) Prostate DU-145 (Prostate DU-145): 0.028 µg/mL
- human cancer cell line growth inhibition (GI50) Breast MCF-7 (Breast MCF-7): 0.066 µg/mL

Compound: Calcium 3-bromo-4,4′,5-trimethoxy-Z-stilbene 3′-O-phosphate [Compound 19f]
- Human cancer cell line inhibition (GI50) CNS SF268 (CNS SF268): 0.0022 µg/mL
- Human cancer cell line inhibition (GI50) Pancreas-a BXPC-3 (Pancreas BXPC-3): <0.001 µg/mL
- Human cancer cell line inhibition (GI50) Colon KM20L2 (Colon KM20L2): 0.37 µg/mL
- Human cancer cell line inhibition (GI50) Lung-NSC NCI-H460 (Lung-NSC NCI-H460): 0.0068 µg/mL
- Human cancer cell line inhibition (GI50) Prostate DU-145 (Prostate DU-145): 0.0063 µg/mL
- Human cancer cell line inhibition (GI50) Breast adn MCF-7 (Breast MCF-7): 0.0022 µg/mL

Compound: COc1ccc(/C=C\c2cc(I)c(OC)c(I)c2)cc1OP(=O)(O)O.NC(CO)(CO)CO.NC(CO)(CO)CO [Z]
- human cancer cell line growth inhibition (GI50) CNS SF268 (CNS SF268): 0.040 µg/mL
- human cancer cell line growth inhibition (GI50) Pancreas BXPC-3 (Pancreas BXPC-3): 0.33 µg/mL
- human cancer cell line growth inhibition (GI50) Colon KM20L2 (Colon KM20L2): 0.94 µg/mL
- human cancer cell line growth inhibition (GI50) Lung-NSC NCI-H460 (Lung-NSC NCI-H460): 0.025 µg/mL
- human cancer cell line growth inhibition (GI50) Prostate DU-145 (Prostate DU-145): 0.021 µg/mL
- human cancer cell line growth inhibition (GI50) Breast MCF-7 (Breast MCF-7): 0.047 µg/mL

— patent publication US20070167412A1, “HALOCOMBSTATINS AND METHODS OF SYNTHESIS THEREOF” (ARIZONA BOARD OF REGENTS, priority 2003, published 2007)
